Data reported in patent US11926613B2, “Kinase inhibitors for the treatment of central and peripheral nervous system disorders” (UNIVERSITY OF MIAMI, priority 2017, dated 2024).

What was measured:
Primary Neurons = assay: HCS neurite outgrowth assay (High Content Screening with Primary Neurons); type: cell-based; settings: Primary neuron
[1] = tested on: neurons from hippocampi of E18 rat embryos; assay: Neurite growth length (% NTL) in cultured E18 rat hippocampal neurons, 9-point dose response, 48 hours; type: cell-based; settings: Rattus norvegicus, Neuron, 48 h; for activity at 0.078 µM: 78 nM; for activity at 0.156 µM: 156 nM; for activity at 0.312 µM: 312 nM; for activity at 0.625 µM: 625 nM
Method: PRE-COATING CULTURE PLATES: On the day before the experiment, 96-well plates were pre-coated by plating 50 μl of Poly-D-lysine solution (PDL, 0.5 mg/mL) in each well. The next morning, the plates were washed four or five times with HBSS or PBS (150 μl/rinse), then left in buffer until cell plating
PREPARING THE CELLS: A timed pregnant rat carrying E18 embryos was euthanized using an IACUC approved method. In a laminar flow hood, the embryos were removed and placed in a petri dish containing Hank's Balanced Salt Solution (HBSS) with 20 mM HEPES, pH 7.3. Pup brains were dissected (see Meberg et al., 2003) and hippocampi were collected in 15 mL a conical tube containing Hibernate E with SM1 (2% v/v).
Dissociation media was prepared by combining 4.5 mL of Hibernate E (without SM1) with 0.5 mL of trypsin and 100 μl of DNAse solution. The medium over the hippocampi was carefully removed and replaced with dissociation solution, then incubated at 37° C. for 15-20 minutes, occasionally swirling the tube.
Using flame polished cotton plugged Pasteur pipettes, the dissociation media was removed, and then 5 mL of Hibernate E containing SM1 were added. The tube was swirled to thoroughly wash the tissue. The tissue was allowed to settle to the bottom of the tube, and the rinse solution was carefully removed. This step was repeated 5 times to dilute out trypsin and DNAse and remove any debris from lysed cells.
The final rinse media was removed from the tube and 1 pipette-full (1-2 mL) of Hibernate E with SM1 was added. Using the flame-polished Pasteur pipette (pre-wetted with rinse media), the tube was triturated until all cells had dissociated and no visible chunks of tissue remained. Fewer than ten triturations were typically performed. The volume was adjusted to 8-12 mL using Hibernate E containing SM1, the well was mixed and cell concentration was determined.
PLATING: The cells were diluted in culture media (NbActiv4 Cell-culture media) to a final concentration of 10,000 cells/mL. The HBSS was aspirated from PDL coated plates, and 150 μL of cell solution was loaded in the middle 48 wells at 1500 cells per well. Water was loaded in the outer wells to decrease evaporation from edge wells. Cells were allowed to adhere for 2 hours in tissue culture incubator prior to treatment.
TREATMENT: Compounds were diluted to various concentrations to provide 9 dose response concentrations of 20 μM, 10 μM, 5, μM, 2.5 μM, 1.25 μM, 0.625 μM, 0.3125 μM, 0.15625 μM, and 0.078125 μM. The plates were cultured for 48 hours, exposed to the compound at the various dose response concentrations.
FIXING THE CULTURES: The culture medium was removed from the plates and immediately replaced with 100-200 μl of warm (37° C.) 4% paraformaldehyde (PFA) solution in phosphate-buffered saline (PBS). The cells were fixed for 15-20 minutes at room temperature, and then rinsed with PBS (200 μl/well×3).
STAINING AND IMAGING: The PBS was removed and replaced with 100 μl of blocking/permeabilization buffer (PBS, 0.2% fish gelatin, 0.03% Triton X-100, 0.02% NaN3), then incubated overnight at 4° C. To this was added 100 μl of primary antibody solution (mouse anti-Beta III tubulin in blocking buffer) and incubate overnight at 4° C. The wells were rinsed with PBS (200 μl×3), which was then removed and replaced with 100 μl of secondary antibody solution (Goat anti-mouse Alexa 488, 10 μg/ml Hoechst 33342, 0.2% fish gelatin, 0.02% azide, in PBS). The plate was shaken gently on a rotating shaker for 2 hours, then rinsed with PBS (200 μl×5).
The plate was imaged using a Cellomics ArrayScan VTI in 2 different channels for nuclear staining (Hoechst) and cell body/neurite staining (βIII-tubulin). Typically, nine fields per well were imaged with a 5× objective and automatically traced by the Neuronal Profiling Bioapplication. To get reproducible results, at least 200-300 valid neurons were measured per condition. […]

| Structure (SMILES) | EC50 (Primary Neurons) [µM] | activity at 0.078 µM [1] [%] | activity at 0.156 µM [1] [%] | activity at 0.312 µM [1] [%] | activity at 0.625 µM [1] [%] | activity at 1.25 µM [1] [%] | activity at 2.5 µM [1] [%] | activity at 5 µM [1] [%] | activity at 10 µM [1] [%] | activity at 20 µM [1] [%] |
| --- | --- | --- | --- | --- | --- | --- | --- | --- | --- | --- |
| O=C(N[C@@H]1CCCC[C@H]1NC(=O)c1ccc(C(=O)c2ccccc2)cc1)c1ccncc1 [Example A19, N-[(1R,2R)-2-(4-benzoylbenzamido)cyclohexyl]pyridine-4-carboxamide] | 2.24 | 90.1 | 93.7 | 68.7 | 75 | 75.7 | 78.5 | 79.4 | 87.4 | 91.2 |
| COc1ccc(OC)c(C(=O)c2ccc(C(=O)N[C@@H]3CCCC[C@H]3NC(=O)c3ccncc3)cc2)c1F [Example A21, N-[(1R,2R)-2-[4-(2-fluoro-3,6-dimethoxybenzoyl)benzamido]cyclohexyl] pyridine-4-carboxamide] | 2.92 | 84.7 | 83.3 | 79.8 | 81.8 | 86.8 | 91.5 | 102 | 107 | 108 |
| COc1ccc(O)c(C(=O)c2ccc(C(=O)N[C@@H]3CCCC[C@H]3NC(=O)c3ccncc3)cc2)c1F [Example A22] | 2.61 | 89.3 | 91.8 | 92.3 | 86.2 | 85.5 | 85.5 | 88.7 | 91.1 | 94.7 |
| O=C(N[C@@H]1CCCCC[C@H]1NC(=O)c1ccc(C(=O)c2ccccc2)cc1)c1ccncc1 [Example A23, N-[(1R,2R)-2-(4-benzoylbenzamido)cycloheptyl]pyridine-4-carboxamide] | 16.8 | 98.3 | 102 | 95.6 | 93.6 | 97 | 101 | 105 | 117 | 144 |
| COc1ccc(OC)c(C(=O)c2ccc(C(=O)N[C@@H]3CCCCC[C@H]3NC(=O)c3ccncc3)cc2)c1F [Example A24, N-[(1R,2R)-2-[4-(2-fluoro-3,6-dimethoxybenzoyl)benzamido]cycloheptyl] pyridine-4-carboxamide] | 16.1 | 96.3 | 96.8 | 93.4 | 96.9 | 91.8 | 101 | 114 | 131 | 169 |
| COc1ccc(O)c(C(=O)c2ccc(C(=O)N[C@@H]3CCCCC[C@H]3NC(=O)c3ccncc3)cc2)c1F [Example A25, N-[(1R,2R)-2-[4-(2-fluoro-6-hydroxy-3-methoxybenzoyl)benzamido]cycloheptyl] pyridine-4-carboxamide] | > 20 | 98.9 | 97.5 | 110 | 111 | 120 | 122 | 134 | 146 | 163 |
